Data: patent US20110190503A1, “Thiazolopyridin-2-yloxy-phenyl and thiazolopyrazin-2-yloxy-phenyl amines as modulators of leukotriene A4 hydrolase” (Janssen Pharmaceutical NV, priority 2008, published 2011)

How the values were obtained:
[1] = system: LTB4 production by calcium ionophore-stimulated murine blood; assay: LTB4 production by calcium ionophore-stimulated murine blood for LTA4H inhibitor activity; type: cell-based, CD-1 mice; details: Mus musculus; murine blood diluted 1 in 15, calcium ionophore A23187, LTB4 by immunoassay; read-out: IC50
Protocol: Assay 2: LTB4 Production by Calcium Ionophore-Stimulated Murine Blood for LTA4H Inhibitor Activity
CD-1 mice were sacrificed, and blood was collected in heparin-containing syringes by cardiac puncture. […] After the microtiter plate contents were incubated for 15 min at 37° C. in a humidified incubator, calcium ionophore A23187 (Sigma Chemical Co., St. Louis, Mo.) was added to each sample well (final concentration=7 μg/mL). The incubation was continued under the same conditions for an additional 30 min to allow LTB4 formation. The reaction was terminated by centrifugation (833×g, 10 min at 4° C.), and supernatants were analyzed for LTB4 by a commercially available enzyme-linked immunoassay (Cayman Chemical Co.) according to the manufacturer's instructions. Positive controls, under essentially identical conditions but without addition of an inhibitor compound, and negative unstimulated controls, containing all assay components except calcium ionophore, were routinely run in each experiment. […] The values presented here are the result of a single determination or an average of two or more determinations, as indicated in parentheses following each value. For compounds tested three or more times, the average value is followed by the standard deviation

[2] = biological target: T1, recombinant human LTA4 hydrolase (rhLTA4H) (Homo sapiens, UniProt P09960); assay: Recombinant human LTA4 hydrolase assay for LTA4 hydrolase inhibitor activity; type: biochemical; details: rhLTA4H, LTA4 substrate, LTB4 by immunoassay; single determination or average; read-out: IC50
T1 construct: made in house; host or cells: Spodoptera frugiperda (Sf-9) cells, recombinant baculovirus (pFastBac1)
T1 sequence (P09960 1-611): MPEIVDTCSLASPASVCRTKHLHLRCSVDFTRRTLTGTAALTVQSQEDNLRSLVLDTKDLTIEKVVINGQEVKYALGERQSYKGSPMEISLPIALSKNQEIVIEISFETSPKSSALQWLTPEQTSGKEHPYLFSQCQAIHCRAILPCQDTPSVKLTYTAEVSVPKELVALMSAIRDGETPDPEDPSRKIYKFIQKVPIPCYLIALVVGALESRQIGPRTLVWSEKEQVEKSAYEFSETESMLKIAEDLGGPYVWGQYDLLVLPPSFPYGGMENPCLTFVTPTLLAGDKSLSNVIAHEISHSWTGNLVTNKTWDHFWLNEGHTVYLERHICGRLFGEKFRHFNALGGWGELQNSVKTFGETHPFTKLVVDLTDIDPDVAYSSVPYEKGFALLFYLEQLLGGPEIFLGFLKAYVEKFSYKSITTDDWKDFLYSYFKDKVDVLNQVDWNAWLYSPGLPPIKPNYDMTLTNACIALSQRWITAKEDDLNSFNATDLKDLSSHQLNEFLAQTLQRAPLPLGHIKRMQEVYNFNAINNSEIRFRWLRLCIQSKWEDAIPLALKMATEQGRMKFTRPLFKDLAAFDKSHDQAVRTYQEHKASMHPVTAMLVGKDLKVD
Procedure, shortened: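 LTB4 formed from LTA4 substrate (free acid from the methyl ester) was quantified by enzyme immunoassay after a 30 min rt reaction. Enzyme was 10 ng Sf-9-expressed human LTA4 hydrolase, pre-incubated 10 min with compound.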

Compound	IC50 [1]	IC50 [2]
NC(=O)N[C@H]1C[C@H]2CC[C@@H](C1)N2CCc1ccc(Oc2nc3ncccc3s2)cc1 [Example 77, meso-1-[(3-endo)-8-{2-[4-([1,3]Thiazolo[4,5-b]pyridin-2-yloxy)Phenyl]ethyl}-8-azabicyclo[3.2.1]oct-3-yl]urea]	190 nM	2.9 nM
CCOC(=O)C1CCN(Cc2ccc(Oc3nc4ncccc4s3)cc2)CC1 [Example 130, Ethyl 1-[4-([1,3]thiazolo[4,5-b]pyridin-2-yloxy)benzyl]piperidine-4-carboxylate]	110 nM	2.5 nM
CC(=O)N[C@@H]1C[C@H]2CC[C@@H](C1)N2CCOc1ccc(Oc2nc3cccnc3s2)cc1 [Example 153, meso-N-[(3-exo)-8-{2-[4-([1,3]Thiazolo[5,4-b]pyridin-2-yloxy)phenoxy]ethyl}-8-azabicyclo[3.2.1]oct-3-yl]acetamide]	360 nM	35 nM
OC1(c2cccc(C(F)(F)F)c2)CCN(Cc2ccc(Oc3nc4ncccc4s3)cc2)CC1 [Example 103, 1-[4-([1,3]Thiazolo[4,5-b]pyridin-2-yloxy)benzyl]-4-[3-(trifluoromethyl)phenyl]piperidin-4-ol]	120 nM	10 nM
NC(=O)N1CC2CN(Cc3ccc(Oc4nc5ncccc5s4)cc3)CC2C1 (stereo not drawn) [Example 277, 5-[4-([1,3]Thiazolo[4,5-b]pyridin-2-yloxy)benzyl]hexahydropyrrolo[3,4-c]pyrrole-2(1H)-carboxamide]	900 nM	7 nM
COCCN(C)CCOc1ccc(Oc2nc3nccc(C)c3s2)cc1 [Example 160, N-Methyl-2-(methyloxy)-N-[2-({4-[(7-methyl[1,3]thiazolo[4,5-b]pyridin-2-yl)oxy]phenyl}oxy)ethyl]ethanamine]	180 nM	99 nM
OC1(c2ccccn2)CCN(Cc2ccc(Oc3nc4ncccc4s3)cc2)CC1 [Example 101, 4-Pyridin-2-yl-1-[4-([1,3]thiazolo[4,5-b]pyridin-2-yloxy)benzyl]piperidin-4-ol]	3 nM	11 nM
OC1(c2ccc(Cl)cc2)CCN(CCc2ccc(Oc3nc4ncccc4s3)cc2)CC1 [Example 47, 4-(4-Chlorophenyl)-1-{2-[4-([1,3]thiazolo[4,5-b]pyridin-2-yloxy)phenyl]ethyl}piperidin-4-ol]	210 nM	34 nM
CC(=O)N1CCC2(CCN(Cc3ccc(Oc4nc5ncccc5s4)cc3)CC2)CC1 [Example 295, 3-Acetyl-9-[4-([1,3]thiazolo[4,5-b]pyridin-2-yloxy)benzyl]-3,9-diazaspiro[5.5]undecane]	15 nM	6 nM
c1ccc(SC2CCN(Cc3ccc(Oc4nc5ncccc5s4)cc3)CC2)cc1 [Example 264, 2-(4-{[4-(Phenylsulfanyl)piperidin-1-yl]methyl}phenoxy)[1,3]thiazolo[4,5-b]pyridine]	159 nM	30 nM
CC(=O)N[C@H]1C[C@H]2CC[C@@H](C1)N2Cc1ccc(Oc2nc3nccc(C)c3s2)cc1 [Example 289, meso-endo-N-[8-{4-[(7-Methyl[1,3]thiazolo[4,5-b]pyridin-2-yl)oxy]benzyl}-8-azabicyclo[3.2.1]oct-3-yl]acetamide]	542 nM	9 nM
CC(=O)N1[C@@H]2CC[C@H]1C[C@@H](NCCOc1ccc(Oc3nc4ncccc4s3)cc1)C2 [Example 159, meso-(3-endo)-8-acetyl-N-{2-[4-([1,3]thiazolo[4,5-b]pyridin-2-yloxy)phenoxy]ethyl}-8-azabicyclo[3.2.1]octan-3-amine]	82 nM	9 nM
CC(=O)N1C[C@H]2CC[C@@H](C1)N2CCc1ccc(Oc2nc3cccnc3s2)cc1 [Example 53, meso-2-(4-{2-[3-Acetyl-3,8-diazabicyclo[3.2.1]oct-8-yl]ethyl}phenoxy)[1,3]thiazolo[5,4-b]pyridine]	2500 nM	58 nM
NC(=O)N1C[C@H]2CC[C@@H](C1)N2CCc1ccc(Oc2nc3cccnc3s2)cc1 [Example 71, meso-8-{2-[4-([1,3]Thiazolo[5,4-b]pyridin-2-yloxy)phenyl]ethyl}-3,8-diazabicyclo[3.2.1]octane-3-carboxamide]	280 nM	81 nM
FC(F)(F)C1CCN(Cc2ccc(Oc3nc4ncccc4s3)cc2)CC1 [Example 92, 2-(4-{[4-(Trifluoromethyl)piperidin-1-yl]methyl}phenoxy)[1,3]thiazolo[4,5-b]pyridine]	67 nM	4 nM
c1ccc(SC2CCN(CCOc3ccc(Oc4nc5ncccc5s4)cc3)CC2)nc1 [Example 291, 2-(4-{2-[4-(Pyridin-2-ylsulfanyl)piperidin-1-yl]ethoxy}phenoxy)[1,3]thiazolo[4,5-b]pyridine]	280 nM	82 nM
NC(=O)C1CCN(Cc2ccc(Oc3nc4ncc(Cl)cc4s3)cc2)CC1 [Example 284, 1-{4-[(6-Chloro[1,3]thiazolo[4,5-b]pyridin-2-yl)oxy]benzyl}piperidine-4-carboxamide]	640 nM	89 nM
NC(=O)N[C@H]1C[C@H]2CC[C@@H](C1)N2Cc1ccc(Oc2nc3ncccc3s2)cc1 [Example 278, meso-1-{(3-endo)-8-[4-([1,3]Thiazolo[4,5-b]pyridin-2-yloxy)benzyl]-8-azabicyclo[3.2.1]oct-3-yl}urea]	280 nM	2 nM
OC1(c2ccccn2)CCN(CCOc2ccc(Oc3nc4ncccc4s3)cc2)CC1 [Example 5, 4-Pyridin-2-yl-1-{2-[4-([1,3]thiazolo[4,5-b]pyridin-2-yloxy)phenoxy]ethyl}piperidin-4-ol]	140 nM	14 nM
OC1(c2ccccc2)CCN(CCOc2ccc(Oc3nc4cccnc4s3)cc2)CC1 [Example 40, 4-Phenyl-1-{2-[4-([1,3]thiazolo[5,4-b]pyridin-2-yloxy)phenoxy]ethyl}piperidin-4-ol]	950 nM	99 nM
c1cnc2sc(Oc3ccc(OCCN4CCC(c5ccncc5)CC4)cc3)nc2c1 [Example 42, 2-{4-[2-(4-Pyridin-4-ylpiperidin-1-yl)ethoxy]phenoxy}[1,3]thiazolo[5,4-b]pyridine]	580 nM	83 nM
NC(=O)N1C[C@H]2C[C@@H]1CN2CCOc1ccc(Oc2nc3ncccc3s2)cc1 [Example 268, (1R,4R)-5-{2-[4-([1,3]Thiazolo[4,5-b]pyridin-2-yloxy)phenoxy]ethyl}-2,5-diazabicyclo[2.2.1]heptane-2-carboxamide]	91 nM	32 nM
C[C@H]1CCCCN1Cc1ccc(Oc2nc3ncccc3s2)cc1 [Example 90, 2-(4-{[(2S)-2-Methylpiperidin-1-yl]methyl}phenoxy)[1,3]thiazolo[4,5-b]pyridine]	23 nM	0.8 nM
c1cnc2nc(Oc3ccc(OCCN4CCC(Oc5ccncc5)CC4)cc3)sc2c1 [Example 13, 2-(4-{2-[4-(Pyridin-4-yloxy)piperidin-1-yl]ethoxy}phenoxy)[1,3]thiazolo[4,5-b]pyridine]	120 nM	13 nM
CC(=O)N1C[C@@H]2C[C@H]1CN2Cc1ccc(Oc2nc3ncc(F)cc3s2)cc1 [Example 128, 2-(4-{[(1S,4S)-5-Acetyl-2,5-diazabicyclo[2.2.1]hept-2-yl]methyl}phenoxy)-6-fluoro[1,3]thiazolo[4,5-b]pyridine]	5 nM	23 nM
NC(=O)N[C@@H]1C[C@H]2CC[C@@H](C1)N2CCc1ccc(Oc2nc3ncccc3s2)cc1 [Example 50, meso-1-[(3-exo)-8-{2-[4-([1,3]Thiazolo[4,5-b]pyridin-2-yloxy)phenyl]ethyl}-8-azabicyclo[3.2.1]oct-3-yl]urea]	2300 nM	2 nM
CC(=O)N1[C@@H]2CC[C@H]1CN(CCOc1ccc(Oc3nc4ncccc4s3)cc1)C2 [Example 162, meso-2-{[4-({2-[8-Acetyl-3,8-diazabicyclo[3.2.1]oct-3-yl]ethyl}oxy)phenyl]oxy}[1,3]thiazolo[4,5-b]pyridine]	12 nM	3 nM
